What is called melting point is the temperature, or range, at which the solid turns liquid. As a reminder, the boiling point is the temperature of boiling at a given pressure.

Structures are written as SMILES.

The values below come from the OPERA property sets (Mansouri et al. 2018).

Conditions in one data set: not given
The compound `Clc1c(Cl)c(Cl)c2c(oc3ccccc32)c1Cl` returned a melting point of 169 °C.
In the case of `COc1nc(NC(C)C)nc(NC(C)C)n1`, the log10 Koc (L/kg) is 2.6, the log10 vapour pressure (mmHg) is -5.64 and the melting point was determined as 91.5 °C.
The compound `CCCCCCc1ccc(O)cc1O` registered a boiling point of 334 °C and a melting point of 68 °C.
`Clc1cccc2[nH]nnc12` showed a log10 Koc (L/kg) of 1.98.
`COc1cc(CC(=O)O)ccc1O` gave a melting point of 144 °C.
`CC(Cl)CCCCl` (centres undefined) showed a boiling point of 162 °C.
For the compound `c1cnc2ccc3ncccc3c2c1`, the melting point was found to be 177 °C.
Regarding `O=S(=O)(Cl)C(Cl)(Cl)Cl`, the boiling point turned out to be 170 °C and the melting point was 140 °C.
`COc1c(Cl)c(Cl)c(O)c(Cl)c1Cl` registered a melting point of 116 °C.
Turning to `Nc1c(Br)cc(O)c2c1C(=O)c1ccccc1C2=O`, the ready biodegradability result is “not readily biodegradable”.
For the compound `Cc1ccc(Cl)c(C)c1`, the boiling point came to 184 °C and the melting point is -32.5 °C.
`COc1cccc(C(=O)O)c1`: the melting point is 107 °C and the ready biodegradability entry is “readily biodegradable”.
Take `CC(C)(C)O`: the boiling point amounted to 82.4 °C, the log10 Henry constant (atm·m³/mol) is -5.04, the log10 Koa is 3.5 and the log10 vapour pressure (mmHg) is 1.61. Also, the melting point came out at 25.4 °C and the ready biodegradability entry is on record as “not readily biodegradable”.
In the case of `FC(F)(F)C(F)(F)C(F)(F)C(F)(F)N(C(F)(F)C(F)(F)C(F)(F)C(F)(F)F)C(F)(F)C(F)(F)C(F)(F)C(F)(F)F`, the boiling point came out at 178 °C, the log10 vapour pressure (mmHg) was -0.258, the melting point is -50 °C and the ready biodegradability entry is given as “not readily biodegradable”.
`C=C[C@H]1CNCC[C@H]1CCC(=O)c1ccnc2ccc(OC)cc12` came in with a melting point of 60 °C.
Turning to `Cc1ccc(S)cc1`, the boiling point is 195 °C, the log10 vapour pressure (mmHg) is -0.191 and the melting point worked out at 43 °C.
As to `CCS(=O)(=O)c1cccnc1S(=O)(=O)NC(=O)Nc1nc(OC)cc(OC)n1`, the log10 Koc (L/kg) amounted to 1.71 and the melting point amounted to 177 °C.
As to `NS(=O)(=O)c1ccc(SCCCO)c([N+](=O)[O-])c1`, the melting point was found to be 163 °C.
The same measure, in the same setting: then `Nc1ccc(S(=O)(=O)Nc2ccccc2)cc1`, with 200 °C.
`OC1CCC1` had a boiling point of 124 °C.
Compound `Cc1cc(=O)oc2cc(O)c(O)cc12` had a melting point of 275 °C.
`Cc1nccc2ccccc12` registered a boiling point of 248 °C and a melting point of 10 °C.
Compound `CN(C)CCCNc1c2ccccc2nc2cccc([N+](=O)[O-])c12` came in with a melting point of 134 °C.
`Nc1c(Cl)c(F)nc(OCC(=O)O)c1Cl`: the log10 vapour pressure (mmHg) was -10.5 and the melting point came to 232 °C.
Turning to `CC1=CCC2CC1C2(C)C` (racemic), the boiling point was 156 °C and the melting point is -60.5 °C.
`C1O[C@@H]1[C@@H]1CO1` registered a boiling point of 144 °C and a melting point of 3.5 °C.
For `CCCCOC(=O)CC`, the boiling point came out at 147 °C, the log10 vapour pressure (mmHg) is 0.645 and the melting point is -89 °C.
Compound `O=C(Cl)c1ccc([N+](=O)[O-])cc1` came in with a melting point of 75 °C.
Same read-out and setting: then `O=C(O)C(Cl)(Cl)CCl`, with 65.5 °C.
Turning to `C=C1CCCCC1`, the boiling point was determined as 102 °C, the log10 vapour pressure (mmHg) was 1.6 and the melting point is -107 °C.
Turning to `O=C(Nc1cccc(Cl)c1)OCC#CCCl`, the log10 Koc (L/kg) worked out at 3.06, the log10 vapour pressure (mmHg) was -6.42, the melting point is 75 °C and the ready biodegradability result is “not readily biodegradable”.
In the case of `COc1ccccc1CO`, the boiling point was 249 °C.
Consider `BrCOCBr`, for which the boiling point came to 154 °C and the melting point is -34 °C.
The corresponding values for `O=Cc1ccc[nH]1` are 218 °C and 46.5 °C.
In the case of `CCC(C)(C)O`, the boiling point is 102 °C, the log10 Henry constant (atm·m³/mol) is -4.86, the log10 vapour pressure (mmHg) came out at 1.22 and the melting point is -9.1 °C. The ready biodegradability entry is listed as “not readily biodegradable”.
With `O=S(=O)(c1ccc(Cl)cc1)c1cc(Cl)c(Cl)cc1Cl`, the log10 vapour pressure (mmHg) is -9.62, the melting point was 147 °C and the ready biodegradability result is listed as “not readily biodegradable”.
Regarding `CC(C)(C)C=O`, the boiling point is 77.5 °C, the melting point is 6 °C and the ready biodegradability result is “readily biodegradable”.
Consider `COC(=O)C(Cl)Cl`, for which the boiling point stood at 143 °C, the log10 vapour pressure (mmHg) came out at 0.654 and the melting point is -51.9 °C.
Consider `Nc1cccc(C(=O)c2cccc(N)c2)c1`, for which the melting point is 174 °C.
As for `CC(O)C(C)Cl` (centres undefined), the boiling point is 139 °C.
`Clc1ccc(OCOc2ccc(Cl)cc2)cc1` showed a melting point of 70.5 °C.
On to `CC(C)SC(C)C`, for which the boiling point is 120 °C, the log10 Henry constant (atm·m³/mol) is -2.48, the log10 vapour pressure (mmHg) was determined as 1.28 and the melting point was -78.1 °C.
The compound `CC1=CCCC=C1` yielded a boiling point of 108 °C.
`N#CCC(=O)O`: the melting point was 66 °C and the ready biodegradability result is listed as “readily biodegradable”.
`Oc1ccc([C@H]2COc3cc(O)ccc3C2)cc1`: the melting point stood at 190 °C.

The same data set, now with this note: fish.
As to `Cc1ccccc1C`, the log10 BCF worked out at 1.15.
`Cc1ccc(C)c(C(C)c2ccccc2)c1` (centres undefined) registered a log10 BCF of 2.86 and a log10 biotransformation half-life (days) of 0.1.
The corresponding values for `Brc1ccc(Oc2cc(Br)c(Br)cc2Br)c(Br)c1` are 6.01 and 1.95.
On to `c1ccc2c(c1)cc1ccc3cccc4ccc2c1c34`, for which the log10 biotransformation half-life (days) was 0.05.
The compound `CCCCCCCCC(C)CCC` (centres undefined) showed a log10 biotransformation half-life (days) of 0.98.
Take `CC(C)(C)O`: the log10 BCF came to 0.7 and the log10 biotransformation half-life (days) was -1.13.
`Cc1cc(C)c2c(c1)CC(C)(C)CC2` registered a log10 biotransformation half-life (days) of 0.32.
